Results taken from patent US11478551B2, “Long-acting adrenomedullin derivative” (University of Miyazaki, priority 2015, dated 2022).

Experiments:
Wistar rat = experiment: Blood pressure-lowering effect, single intravenous dose in rat under anesthesia; assay type: in vivo; details: 1 nmol/kg, single dose into the vein
Experimental: Each compound prepared in experiments I-1 and II-1 or full-length AM was administered in a single dose of 1 nmol/kg into the vein of each rat under anesthesia, and change in the blood pressure of the rat was observed. Each 11 to 14-week-old male Wistar rat was anesthetized by the inhalation of isoflurane. After tracheotomy, inhalational anesthesia was controlled at an isoflurane concentration of 1.5 to 2.5% and a flow rate of 0.6 to 0.8 L/min. The right jugular vein was isolated from the rat, and a catheter tube corresponding to 26 G was inserted thereto. Next, the left carotid artery was isolated from the rat thus treated, and a catheter tube corresponding to 23 G was inserted thereto. From the catheter tube of the right jugular vein, a physiological saline-heparin solution (physiological saline: 100 mL; heparin: 1000 units) was infused at 2.4 mL/hr. […] The catheter inserted in the carotid artery was connected to a pressure transducer. […] In the diagram, the ordinate depicts a difference obtained by subtracting the average blood pressure before the administration of each drug from the average blood pressure at the time of the administration of each drug.

[1] = Measurement over time of AM concentration in plasma after subcutaneous administration (RIA); assay type: in vivo; details: 10 nmol/kg subcutaneous single dose, rat
Experimental: 1 day, 7 days and 10 days after the start of the administration, 50 mg of pentobarbital was intraperitoneally administered, and 300 μL of blood was collected each time from the tail vain under anesthesia. Immediately, 300 μg of EDTA-2Na and […] of aprotinin were added to the obtained blood sample, and the mixture was centrifuged under conditions involving 10 minutes and 3000 rpm to obtain plasma. The AM concentration in the plasma of each sample was measured by radioimmunoassay (RIA) (Kitamura K, Ichiki Y, Tanaka M et al., Immunoreactive adrenomedullin in human plasma. FEBS Lett., vol. 341, p. 288-90, 1994).
The compound (37) prepared in experiment III-1 was subcutaneously administered in a single dose of 30 nmol/kg to each rat, and time-dependent change in the concentration in blood of the adrenomedullin derivative was observed. The compound (37) dissolved in physiological saline was subcutaneously administered to each 7- to 8-week-old male Wistar rat (approximately 250 g). 1 day, 2 days, 4 days, 7 days and 9 days after the start of the administration, 50 mg of pentobarbital was intraperitoneally administered, and 300 μL of blood was collected each time from the tail vain under anesthesia. Immediately, 300 μg of EDTA-2Na and […] of aprotinin were added to the obtained blood sample, and the mixture was centrifuged under conditions involving 10 minutes and 3000 rpm to obtain plasma. The AM concentration in the plasma of each sample was measured by RIA.

[2] = test system: DSS-induced colitis models; experiment: Dextran sodium sulfate (DSS)-induced colitis model; assay type: in vivo; details: mouse
Experimental: The compound (8) was subcutaneously administered to the back of each mouse. On the day following the administration (day 0), colitis model preparation was started by administration of 3% DSS as drinking water for 7 days. […] Physiological saline was administered as a vehicle to a control group. The body weight and the form of stool were evaluated on days 3, 5 and 7 counted from the start date of the DSS administration (day 0) on the basis of the scores shown in Table 4.

[3] = test system: TNBS-induced colitis models; experiment: 2,4,6-trinitrobenzenesulfonic acid (TNBS)-induced colitis model; assay type: in vivo; details: 1 nmol/kg subcutaneous, rat
Experimental: 7-week-old male Wistar rats were acclimatized for 1 week. […] Fasting was carried out for 24 hours concurrently with the subcutaneous administration to remove stool from the body. Colitis models were prepared by procedures described below. The concentration of TNBS (Nacalai Tesque, Inc.) was adjusted to 30 mg/500 μL (in a 50% aqueous ethanol solution). 50 mg of pentobarbital was intraperitoneally administered, and a polyethylene catheter was inserted by 8 cm from the anus under anesthesia while slowly rotated, followed by injection of 500 μL of the drug solution (day 1). Then, the inverted state was maintained for 2 minutes. The body weight and the form of diarrhea were evaluated every day. 14 days later, 50 mg of pentobarbital was intraperitoneally administered, and blood collection from the heart and excision of the large intestine were carried out under anesthesia. The length and weight of the excised intestinal tract were measured and compared between the groups. […] In the diagram, (a) depicts the day on which the compound (8) or physiological saline was subcutaneously administered and fasting was started, and (b) depicts the day on which TNBS was administered.

wound models = experiment: Wound model; assay type: in vivo, mouse; details: 1 nmol/kg subcutaneous single dose, BALB/c-nu/nu mice
Experimental: 5-week-old male BALB/c-nu/nu mice (Charles River Laboratories Japan, Inc.) were purchased and acclimatized for 1 week. Then, 5 mg of pentobarbital was intraperitoneally administered to each mouse for anesthesia. The skin was disinfected using ethanol for disinfection. The skin of the back was pulled with fingers with the mouse in the lateral position, and pressed and cut with a round knife for skin biopsy (disposable biopsy punch with plunger system) from one side toward the other side on a disinfected mat for drafting to prepare two defective injuries each having a diameter of 6 mm. […] Physiological saline was administered as a vehicle to a control group. A dressing was applied to cover the back including the wound sites. Change in the wound areas were observed over time.

[4] = test system: adjuvant-induced arthritis models; experiment: Adjuvant-induced arthritis model; assay type: in vivo; details: 1 and 10 nmol/kg subcutaneous, rat
Experimental: The compound (8) was subcutaneously administered to each rat. […] Physiological saline was administered as a vehicle to a control group. The paw volumes and swelling rates of the right and left legs were measured on days 0 (day before the adjuvant administration), 4, 7, 10 and 14 using a paw volume measurement apparatus (MK-550, Muromachi Kikai Co., Ltd.). Inflammation scores on days 0 (day before the adjuvant administration), 4, 7, 10 and 14 were evaluated on the basis of the scores shown in Table 5.

GL-2-branched CH3O-PEG (60k)-CH2-^αNH-(h.AM (1-52)) [Compound (8)]
decrease in the blood pressure immediately after the administration, as compared to compound (2) (Wistar rat): further suppressed | rapidly decreased blood pressure immediately after the administration (Wistar rat): not observed | level at time molar at 24 h ([1]; 1 day later): ≥ 2.6 nM | level at time molar at 24 h ([1]; 7 days later): ≥ 0.74 nM | level at time molar at 24 h ([1]; 10 days later): ≥ 0.28 nM | wet weight of the intestinal tract as compared to the vehicle control group ([2]; 5 nmol/kg subcutaneous): tendency to decrease | length of the intestinal tract as compared to the vehicle control group ([2]; 25 nmol/kg subcutaneous): tendency to increase | total score (weight loss, stool consistency, bleeding/mucous and bloody stool) ([2]; 5 and 25 nmol/kg subcutaneous, 3% DSS): significant decrease | pathological changes of the large intestine (autopsy report) [3]: evidently fewer | weight loss due to the development of colitis [3]: improved | decrease in the intestinal tract length of the large intestine compared to the vehicle control group ([3]; 14 days later): evidently suppressed | increase in the weight of the large intestine compared to the vehicle control group ([3]; 14 days later): evidently suppressed | reduction in the wound areas compared to the vehicle control group (wound models): faster | arthritis score (inflammation score) as compared to the vehicle control group [4]: significantly decreased | paw volume as compared to the vehicle control group [4]: significantly decreased | swelling rate as compared to the vehicle control group [4]: significantly decreased
